This is an account of results in US10696629B2, “Crystalline form of dextral oxiracetam, preparation method therefor and use thereof” (CHONGQING RUNZE PHARMACEUTICAL COMPANY LIMITED, priority 2016, dated 2020).

Data set [1] in a line: solubility in water. Type of data set: physicochemical.
The nature of data set [2]: variable-temperature powder X-ray diffraction (crystal form stability at high temperatures). The format is physicochemical. The conditions noted are these: heated from 30° C. to 80° C.; powder X-ray diffraction at 35, 45, 55, 65 and 75° C. As to the method: The crystalline form III of dextral oxiracetam of the invention was placed on a single crystal silicon sample stage, heated from 30° C. to 80° C., and subjected to powder X-ray diffraction measurement at 35° C., 45° C., 55° C., 65° C. and 75° C., respectively. […] It can be seen that the crystalline form III of dextral oxiracetam of the invention has good stability at high temperatures. […] It can be confirmed that the crystalline form III of dextral oxiracetam is temperature stable. When the crystalline form III of dextral oxiracetam of the invention is used for storage or formulation processing, the requirements on processing and storage temperatures are reduced.

Each structure is given as a SMILES string. “Also recorded” adds a separate entry of the source.

Take `NC(=O)CN1C[C@H](O)CC1=O` [dextral oxiracetam]: the solubility in data set [1] was at least 100 mg/mL. Further, in data set [2], the “crystal transformation on heating (stability at high temperatures)” value is reported as “does not show a phenomenon of crystal transformation; also recorded: does not exhibit crystal transformation phenomenon”.
